Reference: patent US11242337B2, “Compounds useful for treating gastrointestinal tract disorders” (Ardelyx, Inc., priority 2017, dated 2022)

Tests used:
NHE3 = molecular target: T1, NHE3 (Homo sapiens, UniProt P48764); assay: Cell-based assay of NHE-3 activity (persistent inhibition), human; details: human Persistence, 60 min incubation then washout
T1 construct: expressed in transfected cells
T1 sequence (P48764 26-834): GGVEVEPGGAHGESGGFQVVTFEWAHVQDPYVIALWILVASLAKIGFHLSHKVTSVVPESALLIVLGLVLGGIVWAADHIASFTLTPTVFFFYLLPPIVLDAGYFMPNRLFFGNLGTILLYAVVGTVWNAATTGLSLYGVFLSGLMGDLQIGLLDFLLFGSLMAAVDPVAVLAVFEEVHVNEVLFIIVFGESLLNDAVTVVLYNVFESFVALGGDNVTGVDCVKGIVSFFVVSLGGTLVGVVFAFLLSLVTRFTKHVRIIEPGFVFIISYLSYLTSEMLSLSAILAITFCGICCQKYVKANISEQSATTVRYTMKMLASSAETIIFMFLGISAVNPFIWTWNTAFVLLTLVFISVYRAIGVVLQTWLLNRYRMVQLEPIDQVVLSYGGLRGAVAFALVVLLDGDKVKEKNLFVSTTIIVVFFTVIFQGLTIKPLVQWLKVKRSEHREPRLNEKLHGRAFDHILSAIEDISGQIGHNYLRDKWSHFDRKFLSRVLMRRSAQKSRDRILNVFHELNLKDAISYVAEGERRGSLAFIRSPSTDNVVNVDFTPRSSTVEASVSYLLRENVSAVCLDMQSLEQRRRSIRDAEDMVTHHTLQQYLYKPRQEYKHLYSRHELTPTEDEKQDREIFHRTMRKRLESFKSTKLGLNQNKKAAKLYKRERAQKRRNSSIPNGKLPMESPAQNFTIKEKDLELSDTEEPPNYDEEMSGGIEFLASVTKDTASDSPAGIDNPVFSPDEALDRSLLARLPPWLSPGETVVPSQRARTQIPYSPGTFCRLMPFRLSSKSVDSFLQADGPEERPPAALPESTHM
T1 sequence (Q99653 2-195 partner limits assumed): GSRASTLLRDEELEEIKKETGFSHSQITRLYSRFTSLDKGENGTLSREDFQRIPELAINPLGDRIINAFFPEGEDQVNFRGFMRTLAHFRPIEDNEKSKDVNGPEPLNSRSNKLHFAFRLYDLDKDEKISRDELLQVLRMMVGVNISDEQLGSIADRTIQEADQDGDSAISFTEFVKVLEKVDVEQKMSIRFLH
Summary of the method: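 PS120 fibroblasts expressing human NHE3 with NHERF2 exposed to 0-30 μM compound for 60 min at RT, then washed out; cells acid-loaded by NH4Cl prepulse with BCECF-AM and Na+-free buffer. Na+-driven pH recovery started 10 min post-washout; initial rate of BCECF ratio change (FLIPR) taken as activity.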

[1] = test system: human ileum monolayer culture; assay: Sustained inhibition of apical acid secretion in human organoid monolayer cell cultures (ileum); type: cell-based; details: Homo sapiens, 48 h; 1 μM apical, dosed day 6, apical media pH day 8, vs DMSO
Procedure: Basal media (BM) consisted of advanced DMEM/F12 containing 10 mM HEPES Invitrogen, 15630-080), 1:100 Glutamax (Invitrogen, 35050-061), and 1:100 penicillin/streptomycin (Invitrogen, 15140-122). Supplemented basal media (SBM) contained 1:100 N2 (Invitrogen, 17502-048), 1:50 B27 (Invitrogen, 12587-010), 1 mM N-acetylcysteine (Sigma, A9165), and 10 nM [Leu15]-gastrin I (Sigma, G9145). Growth factors used included 50 ng per mL mouse EGF (Peprotech, 315-09), 100 ng per mL mouse noggin (Peprotech, 250-38), 500 ng per mL human R-spondin 1 (R&D, 4645-RS), 100 ng per mL mouse Wnt-3a (R&D, 1324-WN), 20 μM. Y-27632 (Tocris, 1254), 10 mM nicotinamide (Sigma, N0636), 500 nM A83-01 (Tocris, 2939), 10 μM SB202190 (Tocris, 1264). Transwells were 0.4 μm pore polyester membrane 24-well Transwell inserts (Corning). Cultures were incubated at 37° C. in 5% CO2.
Human ileum organoids were cultured in WENRNAS (Wnt, EGF, noggin, R-spondin1, Nicotinamide, A83-01, SB202190) and typically grown for 7-12 days before being used to plate monolayer cultures. On day 0, organoid cultures embedded in Matrigel were treated with TrypLE Express to break organoids into small pieces and/or single cells. The cells were resuspended to 0.5×10^6 cells/mL in SBM containing WENRAY (Wnt, EGF, noggin, R-spondin1, A83-01, Y-27632). Following this step, 200 μL of cell suspension was plated into the apical side of a 24-well Transwell (100,000 cells/well) and 600 μL of SBM with WENRAY was added to the basolateral side. Ileum cells were differentiated with ENRA (EGF, noggin, R-spondin 1, A83-01) on day 3. The color of apical compartment turns from pink or orange to yellow due to the increase in NHE3 expression after differentiation.
Each human ileum monolayer culture well was washed twice with fresh SBM on the apical side on day 6 before compound dosing. All compound stocks were 10 mM dissolved in DMSO. Each compound stock was individually mixed with fresh SBM to reach final compound concentration 1 μM and dosed only on the apical side of the monolayer (total volume 200 μl). DMSO at the equivalent concentration was used as the vehicle control. Duplicate wells were dosed for each compound. On day 8, apical media pH was measured by pH electrode, to determine the ability of example compounds to produce sustained inhibition of NHE3 activity in a human monolayer culture system by preventing proton secretion into the apical compartment.

Question: For O=C(NCCCCNC(=O)NCCOCCOCCNS(=O)(=O)c1ccc(O[C@H]2c3cc(Cl)cc(Cl)c3C[C@@H]2N2CCNCC2)c(F)c1)NCCOCCOCCNS(=O)(=O)c1ccc(O[C@H]2c3cc(Cl)cc(Cl)c3C[C@@H]2N2CCNCC2)c(F)c1 [Example 33, 3-[2-(2-[2-[(4-[[(1S,2S)-4,6-Dichloro-2-(piperazin-1-yl)-2,3-dihydro-1H-inden-1-yl]oxy]-3-fluorobenzene)sulfonamido]ethoxy]ethoxy)ethyl]-1-[4-[[(2-(2-[2-[(4-[[(1S,2S)-4,6-dichloro-2-(piperazin-1-yl)-2,3-dihydro-1H-inden-1-y]oxy]-3-fluorobenzene)sulfonamido]ethoxy]ethoxy)ethyl]carbamoyl]amino)butyl]urea; bis(trifluoroacetic acid)], which “% inhibition” value (NHE3) is on record?
Answer: C (>70%)

Question: And the inhibition at 1 µM [1]?
Answer: > 70%

Question: With Cc1cc(Cl)cc2c1C[C@H](N1CCNCC1)[C@H]2Oc1ccc(S(=O)(=O)NCCOCCOCCNC(=O)NCCCCNC(=O)NCCOCCOCCNS(=O)(=O)c2ccc(O[C@H]3c4cc(Cl)cc(C)c4C[C@@H]3N3CCNCC3)cc2)cc1 [Example 34, 3-[2-(2-[2-[(4-[[(1S,2S)-6-Chloro-4-methyl-2-(piperazin-1-yl)-2,3-dihydro-1H-inden-1-yl]oxy]benzene)sulfonamido]ethoxy]ethoxy)ethyl]-1-[4-([[2-(2-[2-[(4-[[(1S,2S)-6-chloro-4-methyl-2-(piperazin-1-yl)-2,3-dihydro-1H-inden-1-yl]oxy]benzene)sulfonamido]ethoxy]ethyl)ethyl]carbamoyl]amino)butyl]urea; bis(trifluoroacetic acid)] as the compound, how does the “% inhibition” value (NHE3) read?
Answer: C (>70%)

Question: And the inhibition at 1 µM [1]?
Answer: 50 to 70%

Question: Which results are given for Cc1cc(S(=O)(=O)NCCOCCOCCNC(=O)NCCCCNC(=O)NCCOCCOCCNS(=O)(=O)c2ccc(O[C@H]3c4cc(Cl)cc(C)c4C[C@@H]3N3CCNCC3)c(C)c2)ccc1O[C@H]1c2cc(Cl)cc(C)c2C[C@@H]1N1CCNCC1 [Example 35, 3-[2-(2-[2-[(4-[[(1S,2S)-6-Chloro-4-methyl-2-(piperazin-1-yl)-2,3-dihydro-1H-inden-1-yl]oxy]-3-methylbenzene)sulfonamido]ethoxy]ethoxy)ethyl]-1-[4-([[2-(2-[2-[(4-[[(1S,2S)-6-chloro-4-methyl-2-(piperazin-1-yl)-2,3-dihydro-1H-inden-1-yl]oxy]-3-methylbenzene)sulfonamido]ethoxy]ethoxy)ethyl]carbamoyl]amino)butyl]urea; bis(trifluoroacetic acid)]?
Answer: % inhibition (NHE3): C (>70%); pIC50 (NHE3): C (NHE3 pIC50 > 7); inhibition at 1 µM [1]: > 70%

Question: For Cc1cc(Cl)cc2c1C[C@H](N1CCNCC1)[C@H]2Oc1ccc(S(=O)(=O)NCCOCCOCCNC(=O)NCCCCNC(=O)NCCOCCOCCNS(=O)(=O)c2ccc(O[C@H]3c4cc(Cl)cc(C)c4C[C@@H]3N3CCNCC3)c(F)c2)cc1F [Example 36, 3-[2-(2-[2-[(4-[[(1S,2S)-6-Chloro-4-methyl-2-(piperazin-1-yl)-2,3-dihydro-1H-inden-1-yl]oxy]-3-fluorobenzene)sulfonamido]ethoxy]ethoxy)ethyl]-1-[4-([[2-(2-[2-[(4-[[(1S,2S)-6-chloro-4-methyl-2-(piperazin-1-yl)-2,3-dihydro-1H-inden-1-yl]oxy]-3-fluorobenzene)sulfonamido]ethoxy]ethoxy)ethyl]carbamoyl]amino)butyl]urea; bis(trifluoroacetic acid)], which “% inhibition” value (NHE3) is on record?
Answer: C (>70%)

Question: And the pIC50 (NHE3)?
Answer: C (NHE3 pIC50 > 7)

Question: What about the inhibition at 1 µM [1] of the same compound?
Answer: > 70%

Question: How did the “% inhibition” value (NHE3) turn out when N#Cc1cc(Cl)cc2c1C[C@H](N1CCNCC1)[C@H]2Oc1ccc(S(=O)(=O)NCCOCCOCCNC(=O)NCCCCNC(=O)NCCOCCOCCNS(=O)(=O)c2ccc(O[C@H]3c4cc(Cl)cc(C#N)c4C[C@@H]3N3CCNCC3)cc2)cc1 [Example 41, 3-[2-(2-[2-[(4-[[(1S,2S)-6-Chloro-4-cyano-2-(piperazin-1-yl)-2,3-dihydro-1H-inden-1-yl]oxy]benzene)sulfonamido]ethoxy]ethoxy)ethyl]-1-[4-([[2-(2-[2-[(4-[[(1S,2S)-6-chloro-4-cyano-2-(piperazin-1-yl)-2,3-dihydro-1H-inden-1-yl]oxy]benzene)sulfonamido]ethoxy]ethoxy)ethyl]carbamoyl]amino)butyl]urea; bis(trifluoroacetic acid)] was run?
Answer: C (>70%)

Question: What about the pIC50 (NHE3) of the same compound?
Answer: C (NHE3 pIC50 > 7)

Question: And the inhibition at 1 µM [1]?
Answer: 50 to 70%

Question: What does the source list for Cc1cc(S(=O)(=O)NCCOCCOCCNC(=O)NCCCCNC(=O)NCCOCCOCCNS(=O)(=O)c2ccc(O[C@H]3c4cc(Cl)cc(C#N)c4C[C@@H]3N3CCNCC3)c(C)c2)ccc1O[C@H]1c2cc(Cl)cc(C#N)c2C[C@@H]1N1CCNCC1 [Example 42, 3-[2-(2-[2-[(4-[[(1S,2S)-6-Chloro-4-cyano-2-(piperazin-1-yl)-2,3-dihydro-1H-inden-1-yl]oxy]-3-methylbenzene)sulfonamido]ethoxy]ethoxy)ethyl]-1-[4-([[2-(2-[2-[(4-[[(1S,2S)-6-chloro-4-cyano-2-(piperazin-1-yl)-2,3-dihydro-1H-inden-1-yl]oxy]-3-methylbenzene)sulfonamido]ethoxy]ethoxy)ethyl]carbamoyl]amino)butyl]urea; bis(trifluoroacetic acid)]?
Answer: % inhibition (NHE3): C (>70%); pIC50 (NHE3): C (NHE3 pIC50 > 7); inhibition at 1 µM [1]: > 70%

Question: For N#Cc1cc(Cl)cc2c1C[C@H](N1CCNCC1)[C@H]2Oc1ccc(S(=O)(=O)NCCOCCOCCNC(=O)NCCCCNC(=O)NCCOCCOCCNS(=O)(=O)c2ccc(O[C@H]3c4cc(Cl)cc(C#N)c4C[C@@H]3N3CCNCC3)c(F)c2)cc1F [Example 43, 3-[2-(2-[2-[(4-[[(1S,2S)-6-Chloro-4-cyano-2-(piperazin-1-yl)-2,3-dihydro-1H-inden-1-yl]oxy]-3-fluorobenzene)sulfonamido]ethoxy]ethoxy)ethyl]-1-[4-([[2-(2-[2-[(4-[[(1S,2S)-6-chloro-4-cyano-2-(piperazin-1-yl)-2,3-dihydro-1H-inden-1-yl]oxy]-3-fluorobenzene)sulfonamido]ethoxy]ethoxy)ethyl]carbamoyl]amino)butyl]urea; bis(trifluoroacetic acid)], which “% inhibition” value (NHE3) is on record?
Answer: C (>70%)

Question: And the pIC50 (NHE3)?
Answer: C (NHE3 pIC50 > 7)

Question: And the inhibition at 1 µM [1]?
Answer: 50 to 70%
